We go through 7 molecules from patent publication US5506259A, “β-mercapto-propanamide derivatives useful in the treatment of cardiovascular diseases” (Zambon Group S.p.A., priority 1993, dated 1996).

The target of experiment [1] is T1, neutral endopeptidase enzyme (NEP) (Rattus norvegicus, UniProt P07861).
T1 construct: Membranes from kidney cortex were prepared according to the following procedure; from tissue; host or cells: kidney cortex membranes of male Sprague-Dawley rats
T1 sequence (P07861 1-750): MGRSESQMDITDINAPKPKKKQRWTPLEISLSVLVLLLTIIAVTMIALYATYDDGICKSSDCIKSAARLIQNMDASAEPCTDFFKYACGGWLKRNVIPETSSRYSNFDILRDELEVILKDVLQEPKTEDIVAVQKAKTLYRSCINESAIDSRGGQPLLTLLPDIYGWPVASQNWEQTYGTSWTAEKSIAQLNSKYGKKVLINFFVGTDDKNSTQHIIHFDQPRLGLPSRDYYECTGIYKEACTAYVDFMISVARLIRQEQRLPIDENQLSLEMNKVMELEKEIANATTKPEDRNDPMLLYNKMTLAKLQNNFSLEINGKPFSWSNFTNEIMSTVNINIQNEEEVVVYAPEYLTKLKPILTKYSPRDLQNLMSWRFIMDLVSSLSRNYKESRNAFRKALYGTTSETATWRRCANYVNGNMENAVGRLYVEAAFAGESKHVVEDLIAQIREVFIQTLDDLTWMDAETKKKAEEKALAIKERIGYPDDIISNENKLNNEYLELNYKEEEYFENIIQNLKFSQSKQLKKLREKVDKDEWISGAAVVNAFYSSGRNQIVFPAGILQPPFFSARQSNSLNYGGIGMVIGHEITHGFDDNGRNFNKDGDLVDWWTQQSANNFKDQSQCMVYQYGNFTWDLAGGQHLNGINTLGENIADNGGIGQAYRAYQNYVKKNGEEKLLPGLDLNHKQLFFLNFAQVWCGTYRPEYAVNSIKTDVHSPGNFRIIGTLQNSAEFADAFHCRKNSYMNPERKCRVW
Put plainly: In vitro NEP-inhibitory activity (inhibition of formation of [^3 H]-Tyr-Gly-Gly from [^3 H][Leu^5 ]-enkephaline in kidney cortex membranes). The conditions noted are these: rat kidney cortex membranes 5 μg/ml protein; [^3 H][Leu^5 ]-enkephaline 15 nM; Bestatin 1 mM; pH 7.4; 20 minutes at 30° C. It is filed as biochemical, male Sprague-Dawley rats. Here is the method: The NEP-inhibitory activity of the compounds of formula I was evaluated by means of in vitro tests as percentage of inhibition in the formation of [^3 H]-Tyr-Gly-Gly, a metabolite of [^3 H][Leu^5 ]-enkephaline(see example 26).
a) In vitro NEP-inhibitory activity
The NEP-inhibitory activity in vitro was evaluated according to the method reported in the literature by C. Llorens et al., Eur. J. Pharmacol., 69, (1981), 113-116.
Membranes from kidney cortex were prepared according to the following procedure.
By working at 0°-4° C. the kidneys were removed from killed male Sprague-Dawley rats weighing approximately 300 g.
Cortex was carefully dissected, finely minced and suspended in homogenization buffer (10 mM sodium phosphate pH 7.4 containing 1 mM MgCl2, 30 mM NaCl, 0.02% NaN3) 1:15 weight/volume.
The tissue was then homogenized for 30 seconds using an Ultra-Turrax homogenizer.
Approximately 10 ml of homogenate were layered over 10 ml of sucrose (41% weight/volume) and centrifuged at 31200 rpm for 30 minutes at 4° C. in a fixed angle rotor.
The membranes were collected from the buffer/sucrose interface, washed twice with 50 mM TRIS/HCl buffer (pH 7.4) and resuspended into the same buffer for storage.
The membranes were stored in small aliquots at -80° C. until use. The NEP-inhibitory activity was evaluated by using the following method.
Aliquots of the membrane suspension prepared as above described (concentration 5 μg/ml of proteins) were preincubated in the presence of an aminopeptidase inhibitor (Bestatin - 1 mM) for 10 minutes at 30° C.
[^3 H][Leu^5 ]-enkephaline (15 nM) and buffer TRIS/HCl pH 7.4 (50 mM) were added in order to obtain a final volume of 100 μl.
Incubation (20 minutes at 30° C.) was stopped by adding 0.1M HCl (100 μl).
The formation of the metabolite [^3 H]Tyr-Gly-Gly was quantified by chromatography on polystyrene columns (Porapak Q).
The percentage of inhibition of the metabolite formation in the membrane preparations treated with the compounds of formula I and the reference compounds in comparison to the untreated membrane preparations was expressed as IC50 value (nM).

In experiment [2] the target is T2, endothelin converting enzyme (ECE) (Oryctolagus cuniculus, UniProt A0A5F9CTJ8).
T2 construct: The left saphenous artery was removed and cleaned of the surrounding tissue; from tissue; host or cells: left saphenous artery rings of male New Zealand rabbits, with endothelium
T2 sequence (A0A5F9CTJ8 1-783): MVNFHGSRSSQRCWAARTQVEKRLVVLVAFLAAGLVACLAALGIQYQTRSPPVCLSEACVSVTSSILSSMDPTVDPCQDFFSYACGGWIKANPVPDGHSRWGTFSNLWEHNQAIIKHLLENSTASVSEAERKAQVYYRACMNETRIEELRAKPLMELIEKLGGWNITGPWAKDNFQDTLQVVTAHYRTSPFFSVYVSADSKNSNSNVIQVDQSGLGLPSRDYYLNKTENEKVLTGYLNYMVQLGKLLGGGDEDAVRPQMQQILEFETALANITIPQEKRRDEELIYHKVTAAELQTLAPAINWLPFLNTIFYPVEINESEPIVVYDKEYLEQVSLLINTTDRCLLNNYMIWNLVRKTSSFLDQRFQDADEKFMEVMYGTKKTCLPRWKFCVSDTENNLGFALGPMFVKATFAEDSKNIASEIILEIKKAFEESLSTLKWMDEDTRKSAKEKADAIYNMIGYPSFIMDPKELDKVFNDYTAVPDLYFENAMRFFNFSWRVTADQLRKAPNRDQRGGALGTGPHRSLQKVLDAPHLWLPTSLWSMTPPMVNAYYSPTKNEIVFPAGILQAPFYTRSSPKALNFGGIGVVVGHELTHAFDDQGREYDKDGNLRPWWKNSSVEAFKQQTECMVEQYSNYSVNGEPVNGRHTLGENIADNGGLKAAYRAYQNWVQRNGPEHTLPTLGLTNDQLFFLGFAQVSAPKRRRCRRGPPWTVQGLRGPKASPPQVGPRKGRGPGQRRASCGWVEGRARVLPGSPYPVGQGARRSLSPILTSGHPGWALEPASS
Put plainly: In vitro ECE-inhibitory activity (human Big endothelin-induced contraction of rabbit left saphenous artery rings; inhibition of endothelin formation). Type of experiment: cell-based, Male New Zealand rabbits. The conditions noted are these: human Big endothelin 3×10^-8 M, compound in contact 30 minutes, 37° C. Here is the method: b) In vitro ECE-inhibitory activity
The ECE-inhibitory activity in vitro was evaluated according to the method reported in the literature by M. Auget et al., Eur. J. Pharmacol., 224, (1992), 101-102.
Male New Zealand rabbits (2.5-3 Kg) were sacrificed with an excess of pentobarbital and blood was drawn.
The left saphenous artery was removed and cleaned of the surrounding tissue, cut into 2-3 mm length rings and suspended in 25 ml baths containing Krebs-Henseleit solution at 37° C. and oxygenated with O2 containing 5% CO2. This solution was composed of (mM); NaCl, 118; KCl, 4.7; CaCl2, 2.5; KH2 PO4, 1.2; MgSO4, 1.2; NaHCO3, […]; glucose, 11. The preparations were kept under tension and readjusted to 1 g during the equilibration period (1 hour).
After said period, the preparations were exposed to a submaximal concentration of norepinephrine 1 μM which was repeated every 30 minutes until the response was stable. A concentration of acetylcholine 10 μM on the contraction of norepinephrine verified the presence of the endothelium.
After 30 minutes from the last contraction due to norepinephrine, a concentration of human Big endothelin 3×10^-8 M was administered. After reaching the plateau the preparations were washed for 30 minutes and a concentration 1 μM of the compound to be tested or of its vehicle was administered keeping it in contact for 30 minutes, after that a concentration of Big endothelin 3×10^-8 M was administered again. The percentage of ECE-inhibition was expressed as IC50 value (nM).

In the case of `O=C(O)c1cc(NC(=O)C(CS)Cc2cccnc2)cs1` (stereo not drawn) [compound 6, N-(2-carboxy-4-thienyl)-3-mercapto-2-(3-pyridylmethyl)-propanamide], the figures for the IC50 in experiment [1] and in experiment [2] were 12.6 nM and 1 nM, respectively. On to `O=C(O)Cc1csc(NC(=O)C(CS)Cc2ccccc2)n1` (stereo not drawn) [R-2, N-(4-carboxymethyl-2-thiazolyl)-3-mercapto-2-benzyl-propanamide, reference compound], for which the IC50 in experiment [1] was 8.8 nM. With `O=C(O)c1cccc(NC(=O)C(CS)Cc2ccccc2)c1` (stereo not drawn) [R-1, N-(3-carboxyphenyl)-3-mercapto-2-benzyl-propanamide, reference compound], in experiment [1], the IC50 was found to be 3.12 nM. As for `O=C(O)c1cc(NC(=O)C(CS)Cc2ccc(Cl)cc2)c[nH]1` (stereo not drawn) [compound 9, N-(2-carboxy-4-pyrrolyl)-2-(4-chlorobenzyl)-3-mercapto-propanamide], the IC50 in experiment [1] was 2.7 nM; in experiment [2], 4 nM.

With `O=C(O)c1cc(NC(=O)C(CS)Cc2ccccc2)cs1` (stereo not drawn) [compound 2, N-(2-carboxy-4-thienyl)-3-mercapto-2-benzyl-propanamide], the IC50 turned out to be 1.5 nM in experiment [1] and 2 nM in experiment [2].

On to `COc1cccc(CC(CS)C(=O)Nc2c[nH]c(C(=O)O)c2)c1` (stereo not drawn) [compound 13, N-(2-carboxy-4-pyrrolyl)-3-mercapto-2-(3-methoxybenzyl)-propanamide], for which the concentration for half-maximal inhibition (IC50) in experiment [1] is 5 nM; in experiment [2], 3 nM. The corresponding values for `O=C(O)c1cc(NC(=O)C(CS)Cc2ccccc2)c[nH]1` (stereo not drawn) [compound 4, N-(2-carboxy-4-pyrrolyl)-3-mercapto-2-benzyl-propanamide] are 2.1 nM and 2 nM.
